Results from article PMC9735621, “Synthesis, Biological Evaluation and Computational Studies of New Hydrazide Derivatives Containing 1,3,4-Oxadiazole as Antitubercular Agents” (International Journal of Molecular Sciences, 2022).
Values joined by “and” are separate entries in the source; they are usually repeats but may differ in a detail not shown here. Equal values may be shown once.

Key:
Experiment in all cases: microbe, parasite or virus in culture
Type in all cases: cell-based
[1] = tested on: M. tuberculosis Rifa-R ATCC 35838; settings: Mycobacterium tuberculosis, ATCC35838
[2] = tested on: M. tuberculosis INH-R ATCC35822; settings: Mycobacterium tuberculosis
[3] = tested on: M. tuberculosis Pyr-R ATCC 35828; settings: Mycobacterium tuberculosis, ATCC35828
[4] = tested on: M. tuberculosis Strepto-R ATCC 35820; settings: Mycobacterium tuberculosis, ATCC35820

Row | Structure (SMILES) | MIC [1] | MIC [2] | MIC [3] | MIC [4]
1 | O=C(N/N=C\c1ccccc1)c1nnc(-c2ccncc2)o1 [1a, (Z)-N’-benzyliden-5-(pyridin-4-yl)-1,3,4-oxadiazol-2-carbohydrazide] | > 64 µg/mL | > 64 µg/mL | > 64 µg/mL | > 64 µg/mL
2 | O=C(N/N=C\c1ccccn1)c1nnc(-c2ccccc2)o1 [1l, (Z)-5-phenyl-N’-(pyridin-2-ylmethylen)-1,3,4-oxadiazol-2-carbohydrazide] | 32 µg/mL and 54.4 µM | > 64 µg/mL | 4 µg/mL and 13.6 µM | 64 µg/mL and 109 µM
3 | O=C(N/N=C\c1ccncc1)c1nnc(-c2ccncc2)o1 [1f, (Z)-5-(pyridin-4-yl)-N’-(pyridin-4-ylmethylen)-1,3,4-oxadiazol-2-carbohydrazide] | > 64 µg/mL | > 64 µg/mL | > 64 µg/mL | > 64 µg/mL
4 | NNC(=O)c1ccncc1 [INH, Isoniazid, reference compound] | 0.25 µg/mL and 1.8 µM | > 64 µg/mL | 0.25 µg/mL and 1.8 µM | 0.25 µg/mL and 1.8 µM
5 | O=C(N/N=C\c1ccccc1)c1nnc(-c2ccccc2)o1 [1h, (Z)-N’-benzyliden-5-phenyl-1,3,4-oxadiazol-2-carbohydrazide] | > 64 µg/mL | > 64 µg/mL | 64 µg/mL and 196 µM | > 64 µg/mL
6 | O=C(N/N=C\c1ccncc1)c1nnc(-c2ccccc2)o1 [1m, (Z)-5-phenyl-N’-(pyridin-4-ylmethylen)-1,3,4-oxadiazol-2-carbohydrazide] | > 64 µg/mL | > 64 µg/mL | 16 µg/mL and 54.8 µM | > 64 µg/mL
7 | CO[C@H]1/C=C/O[C@@]2(C)Oc3c(C)c(O)c4c(O)c(c(/C=N/N5CCN(C)CC5)c(O)c4c3C2=O)NC(=O)/C(C)=C\C=C\[C@H](C)[C@H](O)[C@@H](C)[C@@H](O)[C@@H](C)[C@H](OC(C)=O)[C@@H]1C [RIF, reference compound] | > 64 µg/mL | 0.25 µg/mL and 0.3 µM | 0.25 µg/mL and 0.3 µM | 0.25 µg/mL and 0.3 µM
8 | Cc1ccc(C=NNC(=O)c2nnc(-c3ccccc3)o2)cc1 (mixture of isomers) [1j, (E/Z)-N’-(4-methylbenzyliden)-5-phenyl-1,3,4-oxadiazol-2-carbohydrazide] | > 64 µg/mL | > 64 µg/mL | 16 µg/mL and 52.2 µM | > 64 µg/mL
9 | O=C(N/N=C\c1ccccn1)c1nnc(-c2ccncc2)o1 [1e, (Z)-N’-(pyridin-2-ylmethylen)-5-(pyridin-4-yl)-1,3,4-oxadiazol-2-carbohydrazide] | 32 µg/mL and 108 µM | > 64 µg/mL | 4 µg/mL and 13.6 µM | 32 µg/mL and 108 µM
10 | O=C(N/N=C\c1ccc[nH]1)c1nnc(-c2ccccc2)o1 [1k, (Z)-N’-((1H-pyrrol-2-yl)methylen)-5-phenyl-1,3,4-oxadiazol-2-carbohydrazide] | > 64 µg/mL | > 64 µg/mL | 4 µg/mL and 14.1 µM | > 64 µg/mL
11 | O=C(N/N=C\c1ccc(Cl)cc1)c1nnc(-c2ccccc2)o1 [1i, (Z)-N’-(4-chlorobenzyliden)-5-phenyl-1,3,4-oxadiazol-2-carbohydrazide] | > 64 µg/mL | > 64 µg/mL | 32 µg/mL and 97.8 µM | > 64 µg/mL
12 | O=C(N/N=C\c1ccco1)c1nnc(-c2ccncc2)o1 [1g, (Z)-N’-(furan-2-ylmethylen)-5-(pyridin-4-yl)-1,3,4-oxadiazol-2-carbohydrazide] | > 64 µg/mL | > 64 µg/mL | > 64 µg/mL | > 64 µg/mL
13 | O=C(N/N=C\c1ccco1)c1nnc(-c2ccccc2)o1 [1n, (Z)-N’-(furan-2-ylmethylen)-5-phenyl-1,3,4-oxadiazol-2-carbohydrazide] | 32 µg/mL and 103 µM | > 64 µg/mL | 16 µg/mL and 56.6 µM | 32 µg/mL and 103 µM
14 | Cc1ccc(/C=N\NC(=O)c2nnc(-c3ccncc3)o2)cc1 [1c, (Z)-N’-(4-methylbenzyliden)-5-(pyridin-4-yl)-1,3,4-oxadiazol-2-carbohydrazide] | > 64 µg/mL | > 64 µg/mL | > 64 µg/mL | > 64 µg/mL
15 | O=C(N/N=C\c1ccc[nH]1)c1nnc(-c2ccncc2)o1 [1d, (Z)-N’-((1H-pyrrol-2-yl)methylen)-5-(pyridin-4-yl)-1,3,4-oxadiazol-2-carbohydrazide] | > 64 µg/mL | > 64 µg/mL | > 64 µg/mL | > 64 µg/mL
16 | O=C(N/N=C\c1ccc(Cl)cc1)c1nnc(-c2ccncc2)o1 [1b, (Z)-N’-(4-chlorobenzyliden)-5-(pyridin-4-yl)-1,3,4-oxadiazol-2-carbohydrazide] | > 64 µg/mL | > 64 µg/mL | > 64 µg/mL | > 64 µg/mL
